According to PubChem BioAssay AID328 (DTP/NCI, 2004):
Values joined by “and” are separate entries in the source; they are usually repeats but may differ in a detail not shown here. Identical values can stand only once. Toxic doses and inconclusive results are not listed.

Tested on: BDF1 mice, P388 leukemia ip, median survival T/C
Experiment: NCI In Vivo Anticancer Drug Screen. Data for tumor model P388 Leukemia (intraperitoneal) in B6D2F1 (BDF1) mice
Conditions: endpoint: median survival time, higher = longer survival
Outline: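 Steps: implant the tumour, treat one group with compound and another with vehicle, record survival, then divide treated by control.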

[1] = dose: 25.0 mg/kg/injection, schedule: Q01DX009 (ip), vehicle: saline with Tween-80
[2] = dose: 100.0 mg/kg/injection, schedule: Q01DX009 (ip), vehicle: saline with Tween-80
[3] = dose: 100.0 mg/kg/injection, schedule: Q04DX003 (ip), vehicle: saline with Tween-80
[4] = dose: 6.25 mg/kg/injection, schedule: Q01DX009 (ip), vehicle: saline with Tween-80
[5] = dose: 12.5 mg/kg/injection, schedule: Q01DX009 (ip), vehicle: saline with Tween-80
[6] = dose: 100.0 mg/kg/injection, schedule: Q01DX010 (ip), vehicle: saline
[7] = dose: 12.5 mg/kg/injection, schedule: Q01DX009 (ip), vehicle: saline
[8] = dose: 25.0 mg/kg/injection, schedule: Q01DX009 (ip), vehicle: saline
[9] = dose: 25.0 mg/kg/injection, schedule: Q04DX003 (ip), vehicle: saline
[10] = dose: 50.0 mg/kg/injection, schedule: Q04DX003 (ip), vehicle: saline
[11] = dose: 100.0 mg/kg/injection, schedule: Q04DX003 (ip), vehicle: saline
[12] = dose: 200.0 mg/kg/injection, schedule: Q04DX003 (ip), vehicle: saline
[13] = dose: 50.0 mg/kg/injection, schedule: Q01DX009 (ip), vehicle: saline with Tween-80
[14] = dose: 200.0 mg/kg/injection, schedule: Q01DX009 (ip), vehicle: saline with Tween-80
[15] = dose: 200.0 mg/kg/injection, schedule: Q04DX003 (ip), vehicle: saline with Tween-80
[16] = dose: 100.0 mg/kg/injection, schedule: Q01DX001 (ip), vehicle: Klucel (hydroxypropylcellulose) (HPC)
[17] = dose: 100.0 mg/kg/injection, schedule: Q04DX003 (ip), vehicle: Klucel (hydroxypropylcellulose) (HPC)
[18] = dose: 200.0 mg/kg/injection, schedule: Q01DX001 (ip), vehicle: Klucel (hydroxypropylcellulose) (HPC)
[19] = dose: 200.0 mg/kg/injection, schedule: Q04DX003 (ip), vehicle: Klucel (hydroxypropylcellulose) (HPC)
[20] = dose: 400.0 mg/kg/injection, schedule: Q01DX001 (ip), vehicle: Klucel (hydroxypropylcellulose) (HPC)
[21] = dose: 400.0 mg/kg/injection, schedule: Q04DX003 (ip), vehicle: Klucel (hydroxypropylcellulose) (HPC)
[22] = dose: 50.0 mg/kg/injection, schedule: Q04DX003 (ip), vehicle: saline with Tween-80
[23] = dose: 400.0 mg/kg/injection, schedule: Q04DX003 (ip), vehicle: saline with Tween-80
[24] = dose: 400.0 mg/kg/injection, schedule: Q04DX003 (ip), vehicle: saline

CCN(CCO)CCNc1ccc(C)c2sc3ccccc3c(=O)c12
T/C [1]: 122 % of control
T/C (dose: 66.0 mg/kg/injection, schedule: Q04DX003 (ip), vehicle: saline with Tween-80): 103 % of control
T/C [2]: 104 % of control
T/C [3]: 117 % of control

O=C(C=C(C(F)(F)F)C(F)(F)F)c1cccc(C(F)(F)F)c1
T/C [4]: 110 % of control
T/C [5]: 120 % of control
T/C (dose: 12.5 mg/kg/injection, schedule: Q04DX003 (ip), vehicle: saline with Tween-80): 122 % of control
T/C [1]: 110 % of control
T/C (dose: 25.0 mg/kg/injection, schedule: Q04DX003 (ip), vehicle: saline with Tween-80): 122 % of control

CC1C(=O)OC2CC[N+]3([O-])CC=C(COC(=O)C(C)(O)C1(C)O)C23 (stereo not given)
T/C [6]: 100 % of control
T/C (dose: 400.0 mg/kg/injection, schedule: Q01DX010 (ip), vehicle: saline): 110 % of control

CCCCSC#N
T/C (dose: 6.25 mg/kg/injection, schedule: Q01DX001 (ip), vehicle: saline): 94 % of control
T/C (dose: 12.5 mg/kg/injection, schedule: Q01DX001 (ip), vehicle: saline): 100 % of control

CSc1ncc2n1C=CN(C(=O)c1ccc([N+](=O)[O-])cc1)C2O (stereo not given)
T/C [7]: 99 % of control
T/C [8]: 87 % of control
T/C [9]: 107 % of control
T/C (dose: 50.0 mg/kg/injection, schedule: Q01DX009 (ip), vehicle: saline): 92 % of control
T/C [10]: 94 % of control
T/C [11]: 93 % of control
T/C [12]: 90 % of control

CN1Cc2c(ccc3c2OCO3)[C@@H]2[C@H](O)Cc3cc4c(cc3[C@@H]21)OCO4
T/C (dose: 50.0 mg/kg/injection, schedule: Q01DX010 (ip), vehicle: saline): 100 % of control
T/C [6]: 100 % of control

C=CCC#N
T/C [7]: 95 % of control
T/C [8]: 95 % of control
T/C [9]: 100 % of control
T/C [10]: 95 % of control

COC(OC)C1(O)CC(C(C)C)OC(=O)N1 (stereo not given)
T/C [10]: 97 % of control
T/C [11]: 105 % of control

OCC(O)C(O)C(O)C(O)C=Nc1ccc(/C=C/c2ccnc3ccccc23)cc1 (stereo not given)
T/C [13]: 109 % of control
T/C [2]: 105 % of control
T/C [14]: 112 % of control

CCCCOB=O
T/C [3]: 109 % of control
T/C [15]: 100 % of control

O=C(O)CCSCCC(=O)O
T/C [16]: 104 % of control
T/C [17]: 104 % of control
T/C [18]: 108 % of control
T/C [19]: 100 % of control
T/C [20]: 116 % of control
T/C [21]: 113 % of control

CS(=O)(=O)/C=C(\c1ccccc1)c1cccs1
T/C [13]: 114 % of control
T/C [2]: 100 % of control
T/C [14]: 96 % of control

C/C=C1\CN(C(=O)C(NC(=O)C(N)C(O)C(O)COC(N)=O)C2OC(n3cc(C(=O)O)c(=O)[nH]c3=O)C(O)C2O)C1C(=O)O (stereo not given) (tested in a mixture with another compound)
T/C (dose: 100.0 mg/kg/injection, schedule: Q01DX008 (ip), vehicle: saline): 90 % of control
T/C (dose: 200.0 mg/kg/injection, schedule: Q01DX008 (ip), vehicle: saline): 100 % of control

O=[N+]([O-])c1ccc(S(=O)(=O)c2ccc([N+](=O)[O-])cc2)cc1
T/C [22]: 101 % of control
T/C [15]: 110 % of control
T/C [23]: 93 % of control

O=C1SC(c2ccccc2)=S=C1c1ccccc1
T/C [13]: 108 % of control
T/C [2]: 123 % of control
T/C [14]: 123 % of control
T/C (dose: 400.0 mg/kg/injection, schedule: Q01DX009 (ip), vehicle: saline with Tween-80): 117 % of control

CCN(CC)c1c(C)nnc2c3c(-c4ccccc4)c(-c4ccccc4)nnc3nn12
T/C [22]: 91 % of control and 97 % of control (2×)
T/C [3]: 88 % of control and 91 % of control and 97 % of control
T/C [15]: 97 % of control and 108 % of control and 123 % of control
T/C [23]: 92 % of control and 113 % of control

CNc1ccc(OC)cc1
T/C (dose: 100.0 mg/kg/injection, schedule: Q01DX009 (ip), vehicle: other): 100 % of control
T/C (dose: 200.0 mg/kg/injection, schedule: Q01DX009 (ip), vehicle: other): 104 % of control
T/C (dose: 400.0 mg/kg/injection, schedule: Q01DX009 (ip), vehicle: other): 104 % of control

Cc1ccc(NCC(O)CN2CCN(CC(O)CNc3ccc(C)cc3)CC2)cc1 (stereo not given)
T/C [16]: 104 % of control
T/C [18]: 100 % of control
T/C [20]: 86 % of control

CCCCCCOC(CN(C)C)C(Cl)(Cl)Cl (stereo not given)
T/C [13]: 124 % of control
T/C [2]: 107 % of control
T/C [14]: 116 % of control

O=C1N(Cl)C(=O)C(c2ccc(C(F)(F)F)cc2)(c2ccc(C(F)(F)F)cc2)N1Cl
T/C (dose: 1.56 mg/kg/injection, schedule: Q01DX009 (ip), vehicle: saline with Tween-80): 104 % of control
T/C (dose: 3.12 mg/kg/injection, schedule: Q01DX009 (ip), vehicle: saline with Tween-80): 100 % of control
T/C [4]: 100 % of control
T/C [5]: 109 % of control
T/C [3]: 100 % of control
T/C [15]: 109 % of control

COP(=O)(OC)C(OC(=O)C(C)(C)SC(C)=S)=C(C)C
T/C [3]: 110 % of control
T/C [15]: 115 % of control
T/C [23]: 115 % of control

C[C@H]1CCC/C=C/[C@@H]2C[C@H](O)C[C@H]2[C@H](O)/C=C/C(=O)O1
T/C (dose: 2.5 mg/kg/injection, schedule: Q01DX009 (ip), vehicle: Klucel (hydroxypropylcellulose) (HPC)): 110 % of control
T/C (dose: 4.0 mg/kg/injection, schedule: Q01DX010 (ip), vehicle: other): 90 % of control
T/C (dose: 5.0 mg/kg/injection, schedule: Q01DX009 (ip), vehicle: Klucel (hydroxypropylcellulose) (HPC)): 106 % of control
T/C (dose: 8.0 mg/kg/injection, schedule: Q01DX010 (ip), vehicle: other): 90 % of control
T/C (dose: 10.0 mg/kg/injection, schedule: Q01DX009 (ip), vehicle: Klucel (hydroxypropylcellulose) (HPC)): 94 % of control
T/C (dose: 25.0 mg/kg/injection, schedule: Q01DX009 (ip), vehicle: Klucel (hydroxypropylcellulose) (HPC)): 100 % of control
T/C (dose: 50.0 mg/kg/injection, schedule: Q01DX009 (ip), vehicle: Klucel (hydroxypropylcellulose) (HPC)): 100 % of control
T/C (dose: 50.0 mg/kg/injection, schedule: Q04DX003 (ip), vehicle: Klucel (hydroxypropylcellulose) (HPC)): 104 % of control
T/C (dose: 100.0 mg/kg/injection, schedule: Q01DX009 (ip), vehicle: Klucel (hydroxypropylcellulose) (HPC)): 90 % of control
T/C [17]: 109 % of control

Clc1ccc(-c2cc(=[N+]3CC[N+](=c4cc(-c5ccc(Cl)cc5)ss4)CC3)ss2)cc1
T/C (dose: 50.0 mg/kg/injection, schedule: Q04DX003 (ip), vehicle: water): 109 % of control
T/C (dose: 100.0 mg/kg/injection, schedule: Q01DX009 (ip), vehicle: water): 121 % of control
T/C (dose: 100.0 mg/kg/injection, schedule: Q04DX003 (ip), vehicle: water): 116 % of control
T/C (dose: 200.0 mg/kg/injection, schedule: Q01DX009 (ip), vehicle: water): 111 % of control
T/C (dose: 200.0 mg/kg/injection, schedule: Q04DX003 (ip), vehicle: water): 109 % of control

CCCCN(CCCC)CC(O)c1c2cccc(Cl)c2cc2c(Cl)cccc12 (stereo not given)
T/C [13]: 107 % of control
T/C [2]: 102 % of control
T/C [14]: 123 % of control

NOCc1cccc(Cl)c1
T/C [22]: 91 % of control
T/C [3]: 91 % of control

CCOC(=O)C(F)C(Br)C(=O)OCC (stereo not given)
T/C [13]: 96 % of control and 101 % of control
T/C [2]: 116 % of control
T/C [14]: 154 % of control

[N-]=[N+]=NC(=O)C1(Br)CCC2c3ccccc3C([N+](=O)[O-])(C1)c1ccccc12 (stereo not given)
T/C [11]: 95 % of control
T/C [12]: 100 % of control
T/C [24]: 109 % of control

Nc1ccc2c(-c3cccc([N+](=O)[O-])c3)cc(=O)[nH]c2n1
T/C [11]: 88 % of control
T/C [12]: 87 % of control
T/C [24]: 87 % of control

CCOC(=O)C(=O)Cc1cnc2ccccc2n1
T/C [17]: 86 % of control
T/C [19]: 86 % of control
T/C [21]: 90 % of control
